Publication PMC6017655, “In Silico and in Vitro-Guided Identification of Inhibitors of Alkylquinolone-Dependent Quorum Sensing in Pseudomonas aeruginosa” (Molecules : A Journal of Synthetic Chemistry and Natural …, 2018)

Key:
[1] = test system: PA14 biofilms; test: Biofilm assay on glass coverslips, GFP-labelled PA14; type: cell-based, Pseudomonas aeruginosa
Procedure: (§1) One of the clinical challenges of P. aeruginosa infections is the difficulty associated with the effective treatment of biofilms due to their high resistance to antibiotics. […] The effect of Ia, with or without tobramycin, on PA14 and PAO1-L biofilms grown on glass coverslips, was determined. […] The experiment was performed using green fluorescent labelled (GFP)-labelled PAO1-L and PA14 strains, grown under four different conditions: (i) no treatment (control); (ii) compound Ia at 8 µM in PA14 and 34 µM in PAO1-L (concentrations equal to 3× IC50); (iii) tobramycin at 100 µg/mL; (iv) Ia and tobramycin, at the same concentrations as (ii) and (iii).
(§2) Biofilms were cultivated on borosilicate glass coverslips in petri dishes. P. aeruginosa strains, PAO1-L and PA14, were labelled by transformation with plasmid pMMG, which constitutively expresses GFP from the Ptac promoter. Labelled strains were grown at 37 °C, for 16 h, in 2 mL RPMI-1640 (Lonza, Slough, UK), supplemented with 20 mM D-glucose (Sigma–Aldrich, Dorset, UK) and 2 µM FeCl3 (Sigma–Aldrich, Dorset, UK). Cultures were diluted 1:100 in fresh medium and allowed to grow for a further 4 h, or until an OD600 of 0.5 was reached. The mid-logarithmic cultures were diluted to an OD600 of 0.01 in 25 mL RPMI, supplemented with glucose and FeCl3, and inoculated into petri dishes containing UV sterilised borosilicate glass coverslips (22 × 22 mm, thickness no1) (VWR, Lutterworth, UK). Bacterial cells were seeded at 37 °C under static conditions for 1.5 h, and compound Ia was added to the culture at a concentration of 34 µM for P. aeruginosa PAO1-L and 8 µM for PA14 before dishes were moved to a shaker at 60 rpm and 37 °C for 15 h to form mature biofilms. Tobramycin and propidium iodide were added to the 15 h-old cultures at concentrations of 100 µg/mL and 2 µM, respectively, followed by further incubation for 4 h. Coverslips were examined under a Laser Scanning Fluorescent Microscope (LSM2, Zeiss, Oberkochen, Germany). Biofilms were visualised using egfp mode at an excitation wavelength of 488nm. Imaging was carried out using Zen 2011 imaging software (Zeiss, Oberkochen, Germany). A total of 5 Z-stacked images were collected per coverslip. Sampling was conducted at random from the central portion of each coverslip. Biomass was calculated using Image J (NIH, Bethesda, MD, USA) and Comstat 2.1. Software package (www.comstat.dk, lyngby, Denmark).

[2] = test system: PAO1-L biofilms; test: Biofilm assay on glass coverslips, GFP-labelled PAO1-L; type: cell-based, Pseudomonas aeruginosa
Procedure: as §1, §2

[3] = Ia 8 µM, tobramycin 100 µg/mL for 4 h
[4] = Ia 34 µM, tobramycin 100 µg/mL for 4 h

O=CN1N=C(c2ccccc2)CC1c1cccc(Nc2ccnc3cc(Cl)ccc23)c1 (stereo not drawn) [Ia]
Sensitisation of biofilm to tobramycin / effect of combined treatment, PA14 ([1]; Ia 8 µM plus tobramycin 100 µg/mL for 4 h): sensitized the biofilm to tobramycin
Effect on biofilm biomass, PA14 [1, 3]: reducing biomass
Effect on cell viability in biofilm (propidium iodide), PA14 [1, 3]: little impact on cell viability
Sensitisation of biofilm to tobramycin / effect of combined treatment, PAO1-L ([2]; Ia 34 µM plus tobramycin 100 µg/mL for 4 h): sensitized the biofilm to tobramycin
Effect on biofilm biomass, PAO1-L [2, 4]: reducing biomass
Effect on cell viability in biofilm (propidium iodide), PAO1-L [2, 4]: little impact on cell viability
